Results reported in ChEMBL document CHEMBL1201862, “PubChem BioAssay data set” (2004).
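Assay format: 96-well plates, 48-hour exposure. Here, GI50 denotes the concentration required for 50% inhibition of growth.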 The source made the active and inactive calls. Cut-off read from the data, not from the text of the source: active = GI50 up to about 1.1 µM and inactive = higher.

Key:
Assay in all cases: inhibition of tumour cell growth, NCI panel, 48 h
[1] = test system: HCC 2998
[2] = test system: SN12C
[3] = test system: OVCAR-5
[4] = test system: KM-20L2
[5] = test system: SR
[6] = test system: SK-MEL-28
[7] = test system: DLD-1
[8] = test system: K562
[9] = test system: OVCAR-3
[10] = test system: HOP-18
[11] = test system: SNB-78
[12] = test system: HOP-92
[13] = test system: SK-MEL-2
[14] = test system: SF-539
[15] = test system: U-251
[16] = test system: COLO 205
[17] = test system: ACHN
[18] = test system: UACC-257
[19] = test system: EKVX
[20] = test system: CCRF-CEM
[21] = test system: A498
[22] = test system: NCI-H460
[23] = test system: M14
[24] = test system: OVCAR-8
[25] = test system: OVCAR-4
[26] = test system: SF-295
[27] = test system: SK-OV-3
[28] = test system: UO-31
[29] = test system: KM12
[30] = test system: RPMI-8226
[31] = test system: SF-268
[32] = test system: NCI-H522
[33] = test system: SNB-75
[34] = test system: HCT-116
[35] = test system: HT-29
[36] = test system: A549
[37] = test system: 786-0
[38] = test system: MOLT-4
[39] = test system: XF498
[40] = test system: TK-10
[41] = test system: HL-60
[42] = test system: UACC-62
[43] = test system: NCI-H23
[44] = test system: LXFL 529
[45] = test system: SK-MEL-5
[46] = test system: SW-620
[47] = test system: M19-MEL
[48] = test system: RXF 393
[49] = test system: IGROV-1
[50] = test system: SNB-19
[51] = test system: DMS-114
[52] = test system: MDA-MB-435
[53] = test system: HCT-15
[54] = test system: DU-145
[55] = test system: MCF7
[56] = test system: CAKI-1
[57] = test system: Malme-3M
[58] = test system: Hs-578T
[59] = test system: NCI-H226
[60] = test system: T47D
[61] = test system: DMS-273
[62] = test system: MDA-MB-231
[63] = test system: BT-549
[64] = test system: HOP-62
[65] = test system: LOX IMVI

CC(C)C(=O)/C=C/c1ccc(Cl)c(Cl)c1
GI50 [1]: 18.8 µM (inactive)
GI50 [2]: 15 µM (inactive)
GI50 [3]: 21.7 µM (inactive)
GI50 [4]: 19.2 µM (inactive)
GI50 [5]: 14.5 µM (inactive)
GI50 [6]: 18.7 µM (inactive)
GI50 [7]: 14.6 µM (inactive)
GI50 [8]: 6.18 µM (inactive)
GI50 [9]: 14.5 µM (inactive)
GI50 [10]: 11.4 µM (inactive)
GI50 [11]: 34.8 µM (inactive)
GI50 [12]: 17.4 µM (inactive)
GI50 [13]: 17.5 µM (inactive)
GI50 [14]: 13.2 µM (inactive)
GI50 [15]: 17 µM (inactive)
GI50 [16]: 24.9 µM (inactive)
GI50 [17]: 18.5 µM (inactive)
GI50 [18]: 21.5 µM (inactive)
GI50 [19]: 23.4 µM (inactive)
GI50 [20]: 4.53 µM (inactive)
GI50 [21]: 24.8 µM (inactive)
GI50 [22]: 22.2 µM (inactive)
GI50 [23]: 17.5 µM (inactive)
GI50 [24]: 18.9 µM (inactive)
GI50 [25]: 34.9 µM (inactive)
GI50 [26]: 13.4 µM (inactive)
GI50 [27]: 28.6 µM (inactive)
GI50 [28]: 14.2 µM (inactive)
GI50 [29]: 14.8 µM (inactive)
GI50 [30]: 13.8 µM (inactive)
GI50 [31]: 19.2 µM (inactive)
GI50 [32]: 13.4 µM (inactive)
GI50 [33]: > 10 µM (inactive)
GI50 [34]: 3.69 µM (inactive)
GI50 [35]: 19.7 µM (inactive)
GI50 [36]: 21 µM (inactive)
GI50 [37]: 14.5 µM (inactive)
GI50 [38]: 24.4 µM (inactive)
GI50 [39]: 12.5 µM (inactive)
GI50 [40]: 14.2 µM (inactive)
GI50 [41]: 15 µM (inactive)
GI50 [42]: 17.3 µM (inactive)
GI50 [43]: 18.3 µM (inactive)
GI50 [44]: 18.7 µM (inactive)
GI50 [45]: 14.8 µM (inactive)
GI50 [46]: 15.6 µM (inactive)
GI50 [47]: 17.7 µM (inactive)
GI50 [48]: 16.7 µM (inactive)
GI50 [49]: 20 µM (inactive)
GI50 [50]: 15.1 µM (inactive)
GI50 [51]: 19.2 µM (inactive)

COc1cccc2c1C(=O)C=CC2=O
GI50 [1]: 15.3 µM (inactive)
GI50 [52]: 10.1 µM (inactive)
GI50 [2]: 14 µM (inactive)
GI50 [3]: 18.9 µM (inactive)
GI50 [4]: 16.7 µM (inactive)
GI50 [53]: 7.85 µM
GI50 [54]: 19.2 µM (inactive)
GI50 [55]: 1.93 µM (inactive)
GI50 [56]: 7.66 µM (inactive)
GI50 [5]: 0.269 µM (active)
GI50 [6]: 17.5 µM (inactive)
GI50 [7]: 7.19 µM (inactive)
GI50 [8]: 1.32 µM (inactive)
GI50 [9]: 1.85 µM (inactive)
GI50 [10]: 10.4 µM (inactive)
GI50 [11]: 4.54 µM (inactive)
GI50 [12]: 1.99 µM (inactive)
GI50 [57]: 15.5 µM (inactive)
GI50 [13]: 10.1 µM (inactive)
GI50 [14]: 16.1 µM (inactive)
GI50 [15]: 6.81 µM (inactive)
GI50 [16]: 7.06 µM (inactive)
GI50 [58]: 15.4 µM (inactive)
GI50 [59]: 19.1 µM (inactive)
GI50 [17]: 4.39 µM (inactive)
GI50 [18]: 15.5 µM (inactive)
GI50 [19]: 18.5 µM (inactive)
GI50 [20]: 0.281 µM (active)
GI50 [21]: 16.2 µM (inactive)
GI50 [22]: 15.6 µM (inactive)
GI50 [23]: 8.49 µM (inactive)
GI50 [24]: 3.58 µM (inactive)
GI50 [25]: 1.95 µM (inactive)
GI50 [26]: 15.6 µM (inactive)
GI50 [27]: 21.8 µM (inactive)
GI50 [28]: 15.4 µM (inactive)
GI50 [29]: 9.82 µM (inactive)
GI50 [30]: 2.1 µM (inactive)
GI50 [31]: 6.73 µM (inactive)
GI50 [60]: 2.22 µM (inactive)
GI50 [32]: 2.39 µM (inactive)
GI50 [33]: 14.8 µM (inactive)
GI50 [34]: 3.44 µM (inactive)
GI50 [35]: 11 µM (inactive)
GI50 [36]: 20 µM (inactive)
GI50 [37]: 11.5 µM (inactive)
GI50 [38]: 0.526 µM (active)
GI50 [61]: 15 µM (inactive)
GI50 [39]: 2.52 µM (inactive)
GI50 [62]: 2.15 µM (inactive)
GI50 [40]: 14.2 µM (inactive)
GI50 [41]: 0.32 µM (active)
GI50 [42]: 10.9 µM (inactive)
GI50 [43]: 14.8 µM (inactive)
GI50 [44]: 2.33 µM (inactive)
GI50 [45]: 15.3 µM (inactive)
GI50 [46]: 6.18 µM (inactive)
GI50 [47]: 4.45 µM (inactive)
GI50 [48]: 6.76 µM (inactive)
GI50 [63]: 15.5 µM (inactive)
GI50 [49]: 12.2 µM (inactive)
GI50 [50]: 15.5 µM (inactive)
GI50 [64]: 19.9 µM (inactive)
GI50 [51]: 4.92 µM (inactive)

Cn1c(=O)c(C#N)c(O)c2cc3ccccc3nc21
GI50 [1]: > 100 µM (inactive)
GI50 [2]: > 100 µM (inactive)
GI50 [65]: > 100 µM (inactive)
GI50 [53]: > 100 µM
GI50 [56]: > 100 µM (inactive)
GI50 [5]: > 100 µM (inactive)
GI50 [6]: > 100 µM (inactive)
GI50 [7]: > 100 µM (inactive)
GI50 [8]: > 100 µM (inactive)
GI50 [10]: > 100 µM (inactive)
GI50 [11]: > 100 µM (inactive)
GI50 [12]: > 100 µM (inactive)
GI50 [57]: > 100 µM (inactive)
GI50 [13]: > 100 µM (inactive)
GI50 [14]: > 100 µM (inactive)
GI50 [15]: > 100 µM (inactive)
GI50 [16]: > 100 µM (inactive)
GI50 [59]: > 100 µM (inactive)
GI50 [17]: > 100 µM (inactive)
GI50 [18]: > 100 µM (inactive)
GI50 [19]: > 100 µM (inactive)
GI50 [20]: > 100 µM (inactive)
GI50 [22]: > 100 µM (inactive)
GI50 [23]: > 100 µM (inactive)
GI50 [24]: > 100 µM (inactive)
GI50 [25]: > 100 µM (inactive)
GI50 [26]: > 100 µM (inactive)
GI50 [27]: > 100 µM (inactive)
GI50 [28]: > 100 µM (inactive)
GI50 [29]: > 100 µM (inactive)
GI50 [30]: > 100 µM (inactive)
GI50 [31]: > 100 µM (inactive)
GI50 [33]: 44.1 µM (inactive)
GI50 [34]: > 100 µM (inactive)
GI50 [36]: > 100 µM (inactive)
GI50 [38]: > 100 µM (inactive)
GI50 [61]: > 100 µM (inactive)
GI50 [39]: > 100 µM (inactive)
GI50 [40]: > 100 µM (inactive)
GI50 [41]: > 100 µM (inactive)
GI50 [43]: > 100 µM (inactive)
GI50 [44]: > 100 µM (inactive)
GI50 [45]: > 100 µM (inactive)
GI50 [46]: > 100 µM (inactive)
GI50 [47]: > 100 µM (inactive)
GI50 [48]: > 100 µM (inactive)
GI50 [49]: > 100 µM (inactive)
GI50 [50]: > 100 µM (inactive)
GI50 [51]: > 100 µM (inactive)
